# According to US20070066580A1, “Novel aldosterone antagonists and uses thereof” (Recordati Ireland Limited, priority 2005, published 2007):
# Target: T1, ligand binding domain of the human mineralocorticoid receptor (hMR LBD) (Homo sapiens, UniProt P08235)
# T1 construct: made in house; host or cells: Sf9 insect cells (baculovirus, pFastBac)
# T1 sequence (P08235 729-984): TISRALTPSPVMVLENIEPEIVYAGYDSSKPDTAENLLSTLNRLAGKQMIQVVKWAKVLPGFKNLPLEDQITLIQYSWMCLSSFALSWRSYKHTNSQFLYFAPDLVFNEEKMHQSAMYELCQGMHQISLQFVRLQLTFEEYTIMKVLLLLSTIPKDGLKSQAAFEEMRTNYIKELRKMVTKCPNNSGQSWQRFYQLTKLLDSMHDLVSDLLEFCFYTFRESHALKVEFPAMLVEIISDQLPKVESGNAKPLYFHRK
# Test: Mineralocorticoid receptor (MR) in vitro competitive binding assay, [3H]aldosterone displacement
# Conditions: IR^TOTAL = sum of IR^AR/MR, IR^ER/MR, IR^GR/MR, IR^PR/MR
# Description: Mineralocorticoid receptor (MR) binding assay: Spodoptera furgiperda (Sf9) insect cells (ATCC accession number CRL-1711) were maintained in culture in EX-CELL™ 420 serum free medium (JRH Biosciences, Inc.) at 27° C.
# A recombinant baculovirus containing nucleotide sequences encoding the ligand binding domain of the human mineralocorticoid receptor (hMR) cloned into the pFastBac™ vector was generated using the Bac-to-Bac® Baculovirus Expression System Kit (Invitrogen) following the manufacturer's instructions. This recombinant baculovirus contains nucleotides 2401 through 3168 (SEQ ID NO: 13) of hMR, providing for expression of the ligand binding domain (LBD), amino acid residues 729-984 (SEQ ID NO: 14), of hMR (hMR LBD). Cultured Sf9 insect cells were transfected with this recombinant baculovirus following the manufacturer's instructions.
# For the binding assay, a crude lysate of the hMR LBD-expressing insect cells was prepared. The crude lysate was diluted 12.5-fold with binding buffer (20 mM Tris-HCl pH 7.4, 1 mM EDTA, 1 mM dithiothreitol, 20 mM sodium tungstate, 50 mM KCl and 10% glycerol).
# For the negative control sample, the diluted lysate was incubated with a 10 nM final concentration of the radioligand [1,2,6,7-^3H] aldosterone (Amersham Biosciences, catalogue # 434) for 3.5 h at 4° C. For test compounds and the positive control sample, the diluted lysate was incubated with various concentrations of test compound or with a 20 μM final concentration of spironolactone (Sigma, S-3378) as a reference compound for 45 min on ice, and was then incubated with a 10 nM final concentration of [1,2,6,7-^3H] aldosterone for 3.5 h at 4° C.
# Using a CellHarvester (PerkinElmer, formerly Packard Biosciences), receptor/ligand complexes were retained on 96-well GF/B filters (PerkinElmer, formerly Packard Biosciences) while free radioligand passed through the filters. Scintillation counting of GF/B filter plates was performed using a TopCount NXT (PerkinElmer, formerly Packard Biosciences) to quantitate the amount of [1,2,6,7-^3H] aldosterone bound to the hMR LBD.
# The IC50 of a test compound was determined from the concentration of test compound giving half-maximal displacement as obtained by nonlinear least-squares curve fitting to a one-site binding sigmoidal model using Prism 3.0 (Graph Pad Software, Inc., San Diego, US). The calculated IC50 values represent the average values calculated from the results of 1-3 experiments carried out in duplicate.
# IC50 and inhibitory ratio calculations: To provide a measure of the potency of each test compound as an antagonist of MR, the IC50 of each test compound (IC50^Test) for ligand binding to MR and the IC50 of the known MR antagonists eplerenone (IC50^Ep) and spironolactone (IC50^Sp) for ligand binding to MR were used to calculate an IC50 ratio (RIC50) according to the following equations: RIC50^Ep/Test=IC50^Ep/IC50^Test and RIC50^Sp/Test=IC50^Sp/IC50^Test.
# These individual inhibitory ratios were used to calculate a total inhibitory ratio (IR^TOTAL) according to the following equation: IR^TOTAL=IR^AR/MR+IR^ER/MR+IR^GR/MR+IR^PR/MR. B. Results and Discussion
Structure (SMILES),IR^TOTAL compared with the IR^TOTAL for eplerenone,IR^TOTAL compared with the IR^TOTAL for spironolactone
CC(=O)S[C@@H]1CC2=CC(=O)CC[C@]2(C)C2=CC[C@@]3(C)C(CC[C@@]34CCC(=O)O4)C21 (some centres unmarked) [Example 11],at least an order of magnitude greater than the IR^TOTAL for eplerenone,greater than the IR^TOTAL for spironolactone
CC(=O)S[C@@H]1CC2=CC(=O)CC[C@]2(C)[C@@]23O[C@@H]2C[C@@]2(C)C(CC[C@@]24COC(=O)O4)C13 (some centres unmarked) [Example 46],at least an order of magnitude greater than the IR^TOTAL for eplerenone,greater than the IR^TOTAL for spironolactone
CO/N=C/[C@@H]1CC2=CC(=O)CC[C@]2(C)[C@@]23O[C@@H]2C[C@@]2(C)C(CC[C@@]24CCC(=O)O4)C13 (some centres unmarked) [Example 52],,greater than the IR^TOTAL for spironolactone
CCC[C@@H]1CC2=CC(=O)CC[C@]2(C)C2=CC[C@@]3(C)C(C21)[C@@H]1C[C@@H]1[C@@]31CCC(=O)O1 (some centres unmarked) [Example 70],at least an order of magnitude greater than the IR^TOTAL for eplerenone,at least an order of magnitude greater than the IR^TOTAL for spironolactone
C[C@]12CCC(=O)C=C1CCC1C2=CC[C@@]2(C)C1[C@@H]1C[C@@H]1[C@@]21COC(=O)O1 (some centres unmarked) [Example 75],at least an order of magnitude greater than the IR^TOTAL for eplerenone,at least an order of magnitude greater than the IR^TOTAL for spironolactone
C[C@]12CCC(=O)C=C1C[C@@H](C#N)C1C2=CC[C@@]2(C)C1[C@@H]1C[C@@H]1[C@@]21COC(=O)O1 (some centres unmarked) [Example 76],at least an order of magnitude greater than the IR^TOTAL for eplerenone,at least an order of magnitude greater than the IR^TOTAL for spironolactone

# Target: T2, GAL4 DBD-hMR LBD fusion protein (Homo sapiens, UniProt P08235)
# T2 construct: expressed in transfected cells; host or cells: CV-1 cells (African green monkey kidney), transient co-transfection with pCMX-GAL4-based vector and Galp3TKLuc reporter
# Test: Cell-based luciferase assay, agonist mode (CV-1 cells)
# Conditions: 10 μM of compound
# Source text: GAL4 DBD-hMR LBD fusion protein expression vector: A pCMX-GAL4-based vector was used for the expression of a fusion protein composed of the amino acids 1-147 of the DNA binding domain of Saccharomyces cerevisiae GAL4 (GAL4 DBD) (SEQ ID NO: 16) and amino acid residues 729-984 of the ligand binding domain of human mineralocorticoid receptor (hMR LBD) (SEQ ID NO: 14). The expression vector contained an expression cassette of the nucleotide sequence for the GAL4 DBD (See SEQ ID NO: 19) ligated to nucleotides 2401 through 3168 of the human mineralocorticoid (hMR) receptor (SEQ ID NO: 13).
# In vitro cell culture: CV-1 cells (African green monkey kidney cell line, ATCC accession number CCL-70) were maintained in culture in 90% DMEM medium supplemented by 9% FCS and 1% Penicillin-Streptomycin-L-Glutamine at 37° C. under 8.5% CO2.
# These cells were transiently co-transfected with the GAL4 DBD-hMR LBD fusion protein expression vector and the Galp3TKLuc reporter gene vector using the FuGENE 6 Transfection Reagent (Roche) according to the manufacturer's instructions.
# Agonist assay: As a positive control, aldosterone (Acros Organics, catalogue # 215360050) was used at a concentration of 100 nM. The negative control sample was 90% DMEM medium supplemented by 9% charcoal-treated FCS and 1% Penicillin-Streptomycin-L-Glutamine containing 0.2% DMSO plus 0.02% ethanol. Positive control, negative control, or 10 μM final concentration of test compound was added to the cells and incubated for 24 hours at 37° C. under 8.5% CO2 before the Luciferase substrate (Promega, catalogue number #E2620) was added. After an incubation period of 5 min at RT, luminescence signals were read on a microplate reader (Molecular Devices/LJL Biosystems). Negative and positive controls were defined as 0% and 100% agonism, respectively. The agonistic potency of test compounds is given in % and was normalized to the positive and negative controls.
# T2 sequence (P08235 with tags, fused parts or gaps limits assumed): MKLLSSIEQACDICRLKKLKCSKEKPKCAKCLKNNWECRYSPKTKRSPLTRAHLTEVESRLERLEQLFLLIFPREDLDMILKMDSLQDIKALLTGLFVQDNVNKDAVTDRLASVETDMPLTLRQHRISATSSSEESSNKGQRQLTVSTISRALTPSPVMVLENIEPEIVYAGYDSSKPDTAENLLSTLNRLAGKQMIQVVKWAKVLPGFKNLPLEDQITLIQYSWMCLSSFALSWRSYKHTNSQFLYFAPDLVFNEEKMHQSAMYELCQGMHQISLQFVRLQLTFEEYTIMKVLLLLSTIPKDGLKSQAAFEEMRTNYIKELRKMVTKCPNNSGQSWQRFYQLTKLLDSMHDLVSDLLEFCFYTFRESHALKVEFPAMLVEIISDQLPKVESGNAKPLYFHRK
row,Structure (SMILES),potency for activation of MR relative to aldosterone
1,C=CCC[C@@H]1CC2=CC(=O)CC[C@]2(C)C2=CC[C@@]3(C)C(CC[C@@]34CCC(=O)O4)C21 (some centres unmarked) [Example 8],at least three orders of magnitude less potent than aldosterone
2,CCC[C@@H]1CC2=CC(=O)CC[C@]2(C)C2=CC[C@@]3(C)C(CC[C@@]34CCC(=O)O4)C21 (some centres unmarked) [Example 9],at least three orders of magnitude less potent than aldosterone
3,CCC[C@@H]1CC2=CC(=O)CC[C@]2(C)[C@@]23O[C@@H]2C[C@@]2(C)C(CC[C@@]24CCC(=O)O4)C13 (some centres unmarked) [Example 10],at least three orders of magnitude less potent than aldosterone
4,CCCS[C@@H]1CC2=CC(=O)CC[C@]2(C)[C@@]23O[C@@H]2C[C@@]2(C)C(CC[C@@]24CCC(=O)O4)C13 (some centres unmarked) [Example 12],at least three orders of magnitude less potent than aldosterone
5,C[C@]12CCC(=O)C=C1C[C@@H](SCC(F)(F)F)C1C2=CC[C@@]2(C)C1CC[C@@]21CCC(=O)O1 (some centres unmarked) [Example 18],at least three orders of magnitude less potent than aldosterone
6,C[C@@H]1CC2=CC(=O)CC[C@]2(C)C2=CC[C@@]3(C)C(CC[C@@]34CCC(=O)O4)C21 (some centres unmarked) [Example 26],at least three orders of magnitude less potent than aldosterone
7,CO/N=C/[C@@H]1CC2=CC(=O)CC[C@]2(C)C2=CC[C@@]3(C)C(CC[C@@]34CCC(=O)O4)C21 (some centres unmarked) [Example 34],at least three orders of magnitude less potent than aldosterone
8,C[C@]12CCC(=O)C=C1CCC1C3CC[C@@]4(COC(=O)O4)[C@@]3(C)C[C@H]3O[C@@]132 (some centres unmarked) [Example 41],at least three orders of magnitude less potent than aldosterone
9,CO/N=C/[C@@H]1CC2=CC(=O)CC[C@]2(C)[C@@]23O[C@@H]2C[C@@]2(C)C(CC[C@@]24CCC(=O)O4)C13 (some centres unmarked) [Example 52],at least three orders of magnitude less potent than aldosterone
10,CCC[C@@H]1CC2=CC(=O)CC[C@]2(C)C2=CC[C@@]3(C)C(C21)[C@@H]1C[C@@H]1[C@@]31CCC(=O)O1 (some centres unmarked) [Example 70],at least three orders of magnitude less potent than aldosterone
11,CCC[C@@H]1CC2=CC(=O)CC[C@]2(C)[C@@]23O[C@@H]2C[C@@]2(C)C(C13)[C@@H]1C[C@@H]1[C@@]21CCC(=O)O1 (some centres unmarked) [Example 71],at least three orders of magnitude less potent than aldosterone

# Target: T3, MR (Homo sapiens, UniProt P08235)
# T3 sequence (P08235 1-984): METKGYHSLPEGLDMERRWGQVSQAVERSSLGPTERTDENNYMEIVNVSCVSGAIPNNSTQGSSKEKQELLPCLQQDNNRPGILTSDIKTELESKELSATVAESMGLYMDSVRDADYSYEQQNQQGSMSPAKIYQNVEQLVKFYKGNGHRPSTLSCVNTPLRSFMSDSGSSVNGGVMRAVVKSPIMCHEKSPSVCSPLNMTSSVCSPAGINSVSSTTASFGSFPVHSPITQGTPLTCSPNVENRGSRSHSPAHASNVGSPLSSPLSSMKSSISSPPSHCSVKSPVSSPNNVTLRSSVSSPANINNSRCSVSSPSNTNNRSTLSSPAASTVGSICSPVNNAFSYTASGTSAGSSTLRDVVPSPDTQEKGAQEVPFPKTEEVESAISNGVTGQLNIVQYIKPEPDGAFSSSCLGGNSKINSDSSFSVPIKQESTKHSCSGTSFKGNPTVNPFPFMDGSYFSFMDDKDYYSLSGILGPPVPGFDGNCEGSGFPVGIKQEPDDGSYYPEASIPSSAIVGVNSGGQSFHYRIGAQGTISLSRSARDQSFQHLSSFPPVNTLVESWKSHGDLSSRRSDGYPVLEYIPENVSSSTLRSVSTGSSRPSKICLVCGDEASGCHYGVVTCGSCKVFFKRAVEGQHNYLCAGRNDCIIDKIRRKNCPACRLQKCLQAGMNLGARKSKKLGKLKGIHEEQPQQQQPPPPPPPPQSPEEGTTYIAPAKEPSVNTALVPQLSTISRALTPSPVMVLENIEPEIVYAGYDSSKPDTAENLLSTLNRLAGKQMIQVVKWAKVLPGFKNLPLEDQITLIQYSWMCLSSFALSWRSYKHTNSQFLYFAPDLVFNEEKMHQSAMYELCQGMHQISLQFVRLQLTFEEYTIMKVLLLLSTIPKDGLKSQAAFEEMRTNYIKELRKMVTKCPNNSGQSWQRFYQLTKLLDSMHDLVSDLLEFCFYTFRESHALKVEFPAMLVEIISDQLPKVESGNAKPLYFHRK
# Test: not given
# Conditions: cited from earlier work
row,Structure (SMILES),"antimineralocorticoid potency, times more potent than spironolactone"
1,C[C@]12CCC(=O)C=C1[C@@H]1C[C@@H]1[C@H]1[C@@H]3[C@@H]4C[C@@H]4[C@@]4(CCC(=O)O4)[C@@]3(C)CC[C@@H]12,approximately 7.5 times
